# Source: article PMC11083148, “Structure–Activity Relationship Studies on Highly Functionalized Pyrazole Hydrazones and Amides as Antiproliferative and Antioxidant Agents” (International Journal of Molecular Sciences, 2024)
# How the values were obtained:
# HCC-2998 = assay: NCI screening, Colon Cancer; format: cell-based; settings: HCC-2998, Colon Cancer; 10 µM
# Protocol: (§1) In addition, 11a and 17 (representative compounds of the acylhydrazone and amide series) were selected by the National Cancer Institute (NCI, Germantown, MD, USA) and tested at a fixed concentration of 10 µM against a panel of fifty-nine different cancer cell lines, including highly metastatic tumors (Table 2).
# COLO 205 = assay: NCI screening, Colon Cancer; format: cell-based; settings: COLO 205, Colon Cancer; 10 µM
# Protocol: as §1
# KM12 = assay: NCI screening, Colon Cancer; format: cell-based; settings: 10 µM
# Protocol: as §1
# SN12C = assay: NCI screening, Renal Cancer; format: cell-based; settings: 10 µM
# Protocol: as §1
# TK-10 = assay: NCI screening, Renal Cancer; format: cell-based; settings: TK-10, Renal Cancer; 10 µM
# Protocol: as §1
# 786-0 = assay: NCI screening, Renal Cancer; format: cell-based; settings: 786-0, Renal Cancer; 10 µM
# Protocol: as §1
# CAKI-1 = assay: NCI screening, Renal Cancer; format: cell-based; settings: CAKI-1, Renal Cancer; 10 µM
# Protocol: as §1
# RXF 393 = assay: NCI screening, Renal Cancer; format: cell-based; settings: RXF 393, Renal Cancer; 10 µM
# Protocol: as §1
# UO-31 = assay: NCI screening, Renal Cancer; format: cell-based; settings: UO-31, Renal Cancer; 10 µM
# Protocol: as §1
# A498 = assay: NCI screening, Renal Cancer; format: cell-based; settings: 10 µM
# Protocol: as §1
# ACHN = assay: NCI screening, Renal Cancer; format: cell-based; settings: 10 µM
# Protocol: as §1
# washed platelets [1] = assay: ROS assay in platelets (DCFH-DA, thrombin-stimulated); format: cell-based, human; settings: Homo sapiens, Platelet, 0.1 U/mL thrombin, mean ± SD, read-out: IC50 ROS production inhibition
# Outline: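 Washed human platelets (1.0 × 10^8/mL) in pH 7.4 HEPES buffer were pre-incubated 15 min at 37 °C with compound, then stimulated with 0.1 U/mL thrombin. ROS was read as DCF fluorescence from DCFH-DA by flow cytometry. IC50 comes from three-point concentration-response nonlinear regression versus saline control, mean of six experiments.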
# SK-MEL-28 = assay: NCI screening, Melanoma; format: cell-based; settings: SK-MEL-28, Melanoma; 10 µM
# Protocol: as §1
# UACC-62 = assay: NCI screening, Melanoma; format: cell-based; settings: UACC-62, Melanoma; 10 µM
# Protocol: as §1
# MALME-3M = assay: NCI screening, Melanoma; format: cell-based; settings: 10 µM
# Protocol: as §1
# SK-MEL-2 = assay: NCI screening, Melanoma; format: cell-based; settings: SK-MEL-2, Melanoma; 10 µM
# Protocol: as §1
# UACC-257 = assay: NCI screening, Melanoma; format: cell-based; settings: UACC-257, Melanoma; 10 µM
# Protocol: as §1
# SK-MEL-5 = assay: NCI screening, Melanoma; format: cell-based; settings: SK-MEL-5, Melanoma; 10 µM
# Protocol: as §1
# A549/ATCC = assay: NCI screening, Non-Small Cell Lung Cancer; format: cell-based; settings: 10 µM
# Protocol: as §1
# NCI-H23 = assay: NCI screening, Non-Small Cell Lung Cancer; format: cell-based; settings: 10 µM
# Protocol: as §1
# NCI-H226 = assay: NCI screening, Non-Small Cell Lung Cancer; format: cell-based; settings: 10 µM
# Protocol: as §1
# EKVX = assay: NCI screening, Non-Small Cell Lung Cancer; format: cell-based; settings: 10 µM
# Protocol: as §1
# HOP-62 = assay: NCI screening, Non-Small Cell Lung Cancer; format: cell-based; settings: HOP-62, Non-Small Cell Lung Cancer; 10 µM
# Protocol: as §1
# NCI-H322M = assay: NCI screening, Non-Small Cell Lung Cancer; format: cell-based; settings: 10 µM
# Protocol: as §1
# HOP-92 = assay: NCI screening, Non-Small Cell Lung Cancer; format: cell-based; settings: HOP-92, Non-Small Cell Lung Cancer; 10 µM
# Protocol: as §1
# washed platelets [2] = assay: Platelet aggregation (thrombin-induced, Born's method); format: cell-based; settings: Homo sapiens, 0.1 U/mL thrombin, mean ± SD, read-out: IC50 Aggregation inhibition
# Outline: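 Washed human platelets (3.0 × 10^8/mL) were preincubated with compound at 37 °C for 3 min. Aggregation was then triggered with 0.1 U/mL thrombin and measured by Born's turbidimetric method, with IC50 values calculated from the response.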
Compound,Growth Percentage (%) (HCC-2998),Growth Percentage (%) (COLO 205),Growth Percentage (%) (KM12),Growth Percentage (%) (SN12C),Growth Percentage (%) (TK-10),Growth Percentage (%) (786-0),Growth Percentage (%) (CAKI-1),Growth Percentage (%) (RXF 393),Growth Percentage (%) (UO-31),Growth Percentage (%) (A498),Growth Percentage (%) (ACHN),IC50 (washed platelets [1]),Growth Percentage (%) (SK-MEL-28),Growth Percentage (%) (UACC-62),Growth Percentage (%) (MALME-3M),Growth Percentage (%) (SK-MEL-2),Growth Percentage (%) (UACC-257),Growth Percentage (%) (SK-MEL-5),Growth Percentage (%) (A549/ATCC),Growth Percentage (%) (NCI-H23),also measured
"COc1ccc(/C=N/NC(=O)c2c(N)nn(C)c2Nc2ccccc2)cc1 [11a, (E)-3-amino-N′-(4-methoxybenzylidene)-1-methyl-5-(phenylamino)-1H-pyrazole-4-carbohydrazide]",59.18%,35.82%,27.82%,57.59%,89.16%,57.97%,39.84%,37.26%,51.18%,33.08%,49.99%,123 ± 12 µM,57.48%,23.72%,44.75%,70.70%,56.35%,57.21%,57.09%,66.86%,Growth Percentage (%) (NCI-H226): 51.61%; Growth Percentage (%) (EKVX): 69.71%; Growth Percentage (%) (HOP-62): 38.79%; Growth Percentage (%) (NCI-H322M): 89.96%; Growth Percentage (%) (HOP-92): 46.79%; melting point: 208 to 210 °C; IC50 (washed platelets [2]): 183 ± 13 µM
"CCOC(=O)c1c(NC(=O)C2CC2)nn(C)c1Nc1ccccc1 [compound 17, Ethyl 3-(cyclopropanecarboxamido)-1-methyl-5-(phenylamino)-1H-pyrazole-4-carboxylate]",114.15%,106.91%,105.43%,104.27%,107.78%,101.26%,86.39%,101.07%,87.45%,92.87%,104.77%,573 µM,107.16%,93.55%,98.67%,100.69%,99.58%,99.45%,101.59%,98.44%,Growth Percentage (%) (NCI-H226): 98.86%; Growth Percentage (%) (EKVX): 96.82%; Growth Percentage (%) (HOP-62): 110.36%; Growth Percentage (%) (NCI-H322M): 94.41%; Growth Percentage (%) (HOP-92): 81.47%; melting point: 144 to 145 °C; IC50 (washed platelets [2]): 460 µM
